Our source for the Kd values is paper PMC2788921 (Biochemistry, 2009).

Assay [1] addresses benzoylformate decarboxylase (BFDC) (Pseudomonas putida, UniProt P20906). The assay is described as follows: stopped-flow PDA transient kinetics. Format: binding.
The target of another assay is benzaldehyde lyase (BAL) (Pseudomonas fluorescens, UniProt P51853). The assay is described as follows: CD titration of purified BAL. In kind it is binding.

Molecules are shown by their SMILES.

benzaldehyde lyase (BAL), sequence (P51853 whole entry): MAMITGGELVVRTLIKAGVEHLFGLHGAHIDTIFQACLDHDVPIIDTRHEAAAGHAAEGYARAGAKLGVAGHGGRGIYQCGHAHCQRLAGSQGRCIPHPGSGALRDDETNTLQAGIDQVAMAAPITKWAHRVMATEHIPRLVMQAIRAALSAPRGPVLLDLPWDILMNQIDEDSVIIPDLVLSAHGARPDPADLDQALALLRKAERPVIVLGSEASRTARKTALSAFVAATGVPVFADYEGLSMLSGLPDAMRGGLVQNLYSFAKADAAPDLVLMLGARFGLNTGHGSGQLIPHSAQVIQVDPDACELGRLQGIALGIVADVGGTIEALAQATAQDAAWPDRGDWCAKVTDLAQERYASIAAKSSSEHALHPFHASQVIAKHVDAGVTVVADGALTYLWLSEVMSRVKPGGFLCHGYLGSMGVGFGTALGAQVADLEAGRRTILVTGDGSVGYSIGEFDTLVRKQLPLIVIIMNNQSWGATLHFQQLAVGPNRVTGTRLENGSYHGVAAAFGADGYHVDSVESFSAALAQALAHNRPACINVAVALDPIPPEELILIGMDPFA
benzoylformate decarboxylase (BFDC), sequence (P20906 whole entry): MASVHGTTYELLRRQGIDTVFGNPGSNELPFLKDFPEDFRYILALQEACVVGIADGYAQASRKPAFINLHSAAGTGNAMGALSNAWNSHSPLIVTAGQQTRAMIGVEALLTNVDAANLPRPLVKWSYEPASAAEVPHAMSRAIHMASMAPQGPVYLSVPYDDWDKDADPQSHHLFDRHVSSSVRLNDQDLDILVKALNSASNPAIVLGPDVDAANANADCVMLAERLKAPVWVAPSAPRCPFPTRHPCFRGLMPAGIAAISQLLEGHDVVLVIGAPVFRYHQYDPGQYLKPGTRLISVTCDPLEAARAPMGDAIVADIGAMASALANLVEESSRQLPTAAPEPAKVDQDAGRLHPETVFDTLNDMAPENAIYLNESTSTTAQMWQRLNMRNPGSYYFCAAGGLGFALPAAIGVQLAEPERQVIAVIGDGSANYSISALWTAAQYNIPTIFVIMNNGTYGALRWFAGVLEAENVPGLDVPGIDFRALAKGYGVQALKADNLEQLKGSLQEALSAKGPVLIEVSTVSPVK

A word on the Kd: it is the constant that tells how readily two partners part at equilibrium. Regarding `O=C(O)C(=O)/C=C/c1cccnc1` [3-PKB, (E)-2-oxo-4-(pyridin-3-yl)but-3-enoic acid], the Kd in assay [1] came to 340 µM. With `O=C/C=C/c1cccnc1` [PAA, (E)-3-(pyridin-3-yl)acrylaldehyde], the dissociation constant Kd on benzaldehyde lyase (BAL) came to 21.4 ± 1.98 µM.
